Data set [1] has as its system CYP24 mRNA. Nature of the data set: Semi-quantitative RT-PCR of CYP24 exon 11-12 transcripts before and after calcitriol treatment. The note with it: after calcitriol treatment. It counts as cell-based, human. From the text: FIGS. 3A-3D provide graphical representations of CYP24 mRNA splicing patterns and cDNA amplification profiles. FIG. 3A provides a graphical map of the CYP24 gene from exon 9 through exon 11, an example of primer locations for obtaining cDNA using RT-PCR, and resulting products in the case of correct (280 bp) and aberrant (880 bp) splicing. FIG. 3B provides a graphical map of the CYP24 gene from exon 11 through exon 12 and RT-PCR cDNA product sizes for correctly spliced CYP24 mRNA from a CYP24 gene lacking a predictive SNP (150 bp), as well as the inclusion of intron 12 sequences in aberrantly spliced CYP24 mRNA when the predictive SNP is present (302 by transcript). FIG. 3C is a photographic representation of cDNA amplification products of unspliced or spliced CYP24 mRNA across exons 9-11 of the CYP24 mRNA. FIG. 3D is a photographic representation of cDNA amplification products across exons 11-12 of correctly spliced (150 bp) or aberrantly spliced (302 bp) CYP24 mRNA from various cancer cell lines.
Calcitriol treatment (T) modulated the relative expression of the two transcripts differently in the three prostate cancer cell lines. CYP24 enzyme activity is associated with the expression of the lower molecular weight transcript in the three prostate cancer cell lines as shown in Table 3 (D3=calcitriol), which describes the relationship between CYP24 protein activity phenotypes and exon 11-12 transcript size before (“C” in FIG. 3) and after (“T” in FIG. 3) calcitriol treatment in prostate cancer cell lines.

Data set [2] has as its system PC3. The note with it: PC3, androgen independent human prostate cancer cells; cited from earlier work.
In data set [3] the test system is DU145. The note with it: DU145, androgen independent human prostate cancer cells; cited from earlier work.
Data set [4] in a line: Serum calcitriol clearance in cancer patients by CYP24 genotype. Format: in vivo, human. The conditions noted are these: TT/TT genotype (positions 15752 and 15774 of SEQ ID NO:1) vs TC/TC; 30 patients, oral high doses of calcitriol; p-value=0.0377. Here is the method:
Elimination half life was calculated using the equation: T1/2=0.693/β, where β is the slope of the regression line of the terminal log serum calcitriol concentration versus time.
This Example provides an analysis of clinical ramifications of certain CYP24 polymorphisms. To obtain the data presented in this Example, we analyzed CYP24 polymorphisms in the intron between exon 9 and 10 in DNA samples obtained from 30 cancer patients treated with high doses of orally administered calcitriol. […] (Smith DC, et al., Clin Cancer Res. 1999; 5: 1339-1345).

The subject of data set [5] is advanced prostate cancer. The note with it: randomized trial, men with advanced prostate cancer; cited from earlier work.
Data set [6] relates to LNCaP. The conditions noted are these: androgen dependent human prostate cancer cell line; cited from earlier work.
For data set [7], the system named is CYP24. Nature of the data set: CYP24 enzyme activity in untreated and calcitriol-treated human cancer cell lines. It counts as cell-based. The conditions noted are these: for CYP24A1 enzyme activity profiles: baseline and calcitriol-induced. An excerpt: FIG. 2 is a graphical depiction of CYP24 enzymatic activity measured in untreated and calcitriol treated human cancer cell lines.
This Example provides an analysis of CYP24 enzyme activity in untreated and calcitriol-treated human (prostate, breast, lung and colon) cancer cell lines to characterize their capacity to catabolize calcitriol.

With `C=C1/C(=C\C=C2/CCC[C@]3(C)[C@@H]([C@H](C)CCCC(C)(C)O)CC[C@@H]23)C[C@@H](O)C[C@@H]1O` [calcitriol], the results for the “Exon 11-12 size (bp), D3 treated” value in data set [1] (DU145 prostate cancer cells), in data set [1] (LNCaP prostate cancer cells) and in data set [1] (PC3 prostate cancer cells) were 135 bp, 307 bp and 135 bp, respectively. For the same molecule, the “sensitivity to calcitriol growth inhibition” value in data set [2] is recorded as “relatively resistant to calcitriol growth inhibition”; in data set [3] it was “relatively resistant to calcitriol growth inhibition”; in data set [6], “sensitive to calcitriol growth inhibition”. Besides, the “serum calcitriol elimination half life (T1/2)” value in data set [4] was “significantly lower T1/2 than the TC/TC genotype”. Besides, in data set [5], the “potentiation of antitumor activity of docetaxel” value is on record as “potentiate the antitumor activity of docetaxel”. In addition, the “baseline and calcitriol-induced CYP24 enzyme profile” value in data set [7] (A549 lung cancer cells) was “high baseline and calcitriol induced CYP24 activity”; in data set [7] (H520 lung cancer cells), “negligible baseline and calcitriol-induced CYP24 activity”; in data set [7] (HCT116 colon cancer cells), “high baseline and calcitriol induced CYP24 activity”; in data set [7] (HT29 colon cancer cells) it was “barely detectable baseline CYP24 activity that is calcitriol-induced”; in data set [7] (MCF7 breast cancer cells) it was “barely detectable baseline CYP24 activity that is calcitriol-induced”; in data set [7] (MDA231 breast cancer cells) it was “high baseline and calcitriol induced CYP24 activity”. Besides, the “CYP24A1 enzyme activity profiles” value in data set [7] (DU145 prostate cancer cells) was “high baseline and calcitriol induced CYP24 activity”; in data set [7] (DU145 prostate cancer cells, listed as D3), “High baseline & D3 inducible”; in data set [7] (LNCaP prostate cancer cells), “negligible baseline and calcitriol-induced CYP24 activity”; in data set [7] (LNCaP prostate cancer cells, listed as D3), “Negligible: baseline & D3 inducible”; in data set [7] (PC3 prostate cancer cells), “barely detectable baseline CYP24 activity that is calcitriol-induced”; in data set [7] (PC3 prostate cancer cells, listed as D3), “Negligible baseline & high D3 inducible”.

Values taken from US20100075316A1, “METHOD FOR I[…] VITAMIN D METABOLISM” (priority 2006, published 2010).
